Columns and labels:
[1] = test system: murine breast tumors (Her2-dependent, BH archive); experiment: murine breast tumor response to tivozanib (BH archive tumors transplanted subcutaneously in NCr nude mice); format: in vivo, mouse
From the text: A library of more than 100 murine breast tumors (BH archive) was used to identify tumors that are sensitive to tivozanib (responders) and tumors that are resistant to tivozanib (non-responders). The BH archive was established by in vivo propagation and cryopreservation of primary tumor material from more than 100 spontaneous murine breast tumors derived from engineered chimeric mice that develop Her2-dependent, inducible spontaneous breast tumors. The mice were produced essentially as follows.
Tumor cells were isolated by physical disruption of the tumors using cell strainers. Typically 1×10^5 cells were mixed with matrigel (50:50 volume) and injected subcutaneously into female NCr nu/nu mice on upper dorsal region between the shoulder blades. When these tumors grew to approximately 500 mm^3, which typically required 2 to 4 weeks, they were collected for further propagation, drug response testing, and analysis. Analysis included microarray profiling, general histopathology, and IHC (CD31 for tumor vasculature, Ki67 for tumor cell proliferation).
Evaluation of tumor response to tivozanib was performed essentially as follows. Subcutaneously transplanted tumors were established by injecting physically disrupted tumor cells (mixed with Matrigel) into 7 week-old female NCr nude mice. When the tumors reached approximately 200-400 mm^3, 30 tumor-bearing mice were randomized into three groups. Group 1 received vehicle. Group 2 received tivozanib at 5 mg/kg daily by oral gavage. Group 3 received tivozanib at 20 mg/kg daily by oral gavage. Tumors were measured twice per week by a caliper, and tumor volume was calculated. At the end of the treatment, tumors were collected for histopathological analysis and IHC analysis.
Based on tumor growth inhibition and typical histopathological and IHC (CD31) characteristics for angiogenesis inhibition, responders and non-responders were identified. […] The variation in response was expected, because the mouse model tumors had arisen spontaneously, and therefore they were expected to contain differing sets of random mutations that had led to tumorigenesis, including tumor angiogenesis. Such variation in response was desirable, because it was similar to the variation in naturally occurring human tumors, and thus enabled identification of tivozanib-responsive tumors and tivozanib-resistant tumors for use in identifying the molecular signature or tivozanib responsiveness.

VEGF receptor 3 = VEGF receptor 3 (Homo sapiens, UniProt P35916); settings: Nakamura et al., 2006; cited from earlier work
preclinical models = settings: Nakamura et al., 2006; cited from earlier work
[2] = 272-patient Phase 2 clinical trial; Bhargava et al., 2009; cited from earlier work
[3] = of 26 individual murine breast tumors, FIG. 1

Sequence of VEGF receptor 3 (P35916 25-1363): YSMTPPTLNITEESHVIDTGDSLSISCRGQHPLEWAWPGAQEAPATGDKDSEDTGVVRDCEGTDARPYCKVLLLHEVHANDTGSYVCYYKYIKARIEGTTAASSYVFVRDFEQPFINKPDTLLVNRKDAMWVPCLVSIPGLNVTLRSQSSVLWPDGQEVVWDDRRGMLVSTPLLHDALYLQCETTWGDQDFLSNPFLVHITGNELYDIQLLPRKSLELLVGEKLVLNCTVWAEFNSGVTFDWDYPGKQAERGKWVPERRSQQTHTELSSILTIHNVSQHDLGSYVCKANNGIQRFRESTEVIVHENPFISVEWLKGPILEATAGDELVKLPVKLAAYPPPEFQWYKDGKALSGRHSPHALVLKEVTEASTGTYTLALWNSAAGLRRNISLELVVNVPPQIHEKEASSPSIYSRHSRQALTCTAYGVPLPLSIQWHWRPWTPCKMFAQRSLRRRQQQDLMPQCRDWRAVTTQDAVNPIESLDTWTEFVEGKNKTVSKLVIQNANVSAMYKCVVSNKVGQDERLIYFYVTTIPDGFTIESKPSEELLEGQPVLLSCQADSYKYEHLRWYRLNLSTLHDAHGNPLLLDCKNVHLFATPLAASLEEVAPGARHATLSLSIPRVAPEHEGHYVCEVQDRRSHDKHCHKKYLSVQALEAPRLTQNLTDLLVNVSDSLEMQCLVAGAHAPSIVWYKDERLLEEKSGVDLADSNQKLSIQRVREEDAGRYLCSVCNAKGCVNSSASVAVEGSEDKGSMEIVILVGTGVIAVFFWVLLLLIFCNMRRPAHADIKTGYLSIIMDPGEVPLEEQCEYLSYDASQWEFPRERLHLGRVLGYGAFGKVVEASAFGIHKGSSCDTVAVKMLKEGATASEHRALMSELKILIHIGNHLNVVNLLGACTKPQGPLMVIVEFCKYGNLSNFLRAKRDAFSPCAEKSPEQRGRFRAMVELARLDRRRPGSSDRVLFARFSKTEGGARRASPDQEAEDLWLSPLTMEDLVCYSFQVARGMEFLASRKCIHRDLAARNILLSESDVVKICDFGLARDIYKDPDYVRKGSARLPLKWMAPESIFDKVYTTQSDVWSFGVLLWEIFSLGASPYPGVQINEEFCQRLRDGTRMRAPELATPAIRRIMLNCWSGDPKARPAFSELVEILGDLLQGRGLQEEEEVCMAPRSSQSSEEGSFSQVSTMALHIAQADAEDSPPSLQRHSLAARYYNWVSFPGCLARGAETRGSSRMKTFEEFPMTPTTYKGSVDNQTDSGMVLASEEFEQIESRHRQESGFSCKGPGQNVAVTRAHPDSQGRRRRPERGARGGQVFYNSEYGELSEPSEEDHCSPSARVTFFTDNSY

COc1cc2nccc(Oc3ccc(NC(=O)Nc4cc(C)on4)c(Cl)c3)c2cc1OC [tivozanib, N-{2-chloro-4-[(6,7-dimethoxy-4-quinolyl)oxy]-phenyl}-N′-(5-methyl-3-isoxazolyl)urea]
variation in response among tumors ([1]; 5 or 20 mg/kg daily by oral gavage): significant tumor-to-tumor variation in response | number of tumors classified as non-responsive (tivozanib resistant tumors) [1, 3]: 18 | number of tumors classified as responsive (tivozanib sensitive tumors) [1, 3]: eight | tumor progression by caliper measurement ([1]; responder tumors, 5 mg/kg daily by oral gavage): no tumor progression | tumor killing (by histology) ([1]; responder tumors, 5 mg/kg daily by oral gavage, except the peripheries): close to complete tumor killing | inhibitory activity (VEGF receptor 3): picomolar | antitumor activity (preclinical models): exhibits antitumor activity | interim results of clinical trial [2]: positive interim results

From patent US7736861B1, “Tivozanib response prediction” (AVEO Pharmaceuticals, Inc., priority 2009, dated 2010)
